Paper PMC8920929 (The Journal of Biological Chemistry, 2022)
Numbering of substitutions follows the chain as printed.

Columns and labels:
[1] = target: T1, TRPV3-D512A (Homo sapiens, UniProt Q8NET8, D512A); assay: Whole-cell and single-channel recordings of the TRPV3-D512A mutant; format: cell-based
T1 sequence (Q8NET8 1-790 D512A): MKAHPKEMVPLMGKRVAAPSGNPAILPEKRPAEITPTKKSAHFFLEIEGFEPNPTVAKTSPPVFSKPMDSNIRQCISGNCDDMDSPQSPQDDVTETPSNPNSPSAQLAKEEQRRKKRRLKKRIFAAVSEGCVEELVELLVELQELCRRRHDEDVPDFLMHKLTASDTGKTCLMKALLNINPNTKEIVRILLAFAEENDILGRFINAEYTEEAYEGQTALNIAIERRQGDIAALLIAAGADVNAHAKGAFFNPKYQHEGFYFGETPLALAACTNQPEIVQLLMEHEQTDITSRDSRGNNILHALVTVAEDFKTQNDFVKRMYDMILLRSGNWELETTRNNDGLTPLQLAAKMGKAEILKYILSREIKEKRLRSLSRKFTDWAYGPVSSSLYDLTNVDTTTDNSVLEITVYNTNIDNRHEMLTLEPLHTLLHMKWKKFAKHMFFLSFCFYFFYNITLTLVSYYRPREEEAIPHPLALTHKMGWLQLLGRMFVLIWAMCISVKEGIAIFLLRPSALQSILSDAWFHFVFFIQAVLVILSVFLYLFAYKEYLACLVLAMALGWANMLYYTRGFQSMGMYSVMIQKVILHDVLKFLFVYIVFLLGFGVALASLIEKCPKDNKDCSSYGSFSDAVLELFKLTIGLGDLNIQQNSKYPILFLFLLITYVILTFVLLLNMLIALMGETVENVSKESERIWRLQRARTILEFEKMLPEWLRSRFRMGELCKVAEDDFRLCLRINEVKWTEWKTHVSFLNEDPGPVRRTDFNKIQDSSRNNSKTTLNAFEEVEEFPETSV

[2] = target: T2, TRPV3-L508F (Homo sapiens, UniProt Q8NET8, L508F); assay: Whole-cell and single-channel recordings of the TRPV3-L508F mutant; format: cell-based; settings: carvacrol 0.3-3.0 mM or 50 μM 2-APB
T2 sequence (Q8NET8 1-790 L508F): T1 sequence (Q8NET8 1-790 D512A) with L508F, A512D

[3] = target: T3, TRPV3-L508V (Homo sapiens, UniProt Q8NET8, L508V); assay: Whole-cell and single-channel recordings of the TRPV3-L508V mutant; format: cell-based; settings: carvacrol 0.3-3 mM
T3 sequence (Q8NET8 1-790 L508V): T1 sequence (Q8NET8 1-790 D512A) with L508V, A512D

[4] = tested on: mice; settings: mice, but not TRPV3-KO mice; ref [33], [34]; cited from earlier work

EC50 [1]: 3.21 ± 0.48 mM
right shift of channel activation versus WT TRPV3 ([1]; D512A versus WT): over 10 fold
sensitivity of TRPV3 D512A mutant channel ([1]; carvacrol 0.3-3.0 mM): decreased the sensitivity
activation of TRPV3 L508F mutant channel [2]: ablated TRPV3 activation
activation of TRPV3 L508V mutant channel [3]: retain the channel activation
SMILES: Cc1ccc(C(C)C)cc1O [carvacrol, 5-Isopropyl-2-methylphenol]
pruritus on pharmacological activation of TRPV3 [4]: induces pruritus
